Results: the supplement of paper PMC10307832

What was measured:
Assay in all cases: relative viability (nuclei count vs DMSO), 5 days (fraction); higher = more cells survive
[1] = compound: COc1cc2nccc(Oc3ccc(NC(=O)C4(C(=O)Nc5ccc(F)cc5)CC4)cc3)c2cc1OC [Cabozantinib] + C[C@@H](Oc1cc(-c2cnn(C3CCNCC3)c2)cnc1N)c1c(Cl)ccc(F)c1Cl [Crizotinib] (partner 1 µM)
Summary of the method: (§1)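 For relative viability, nuclei counts in treated wells were divided by those in vehicle wells. Lung cancer cell lines had been pin-tool dosed in 1536-well plates the day after seeding and cultured for 5 days, then fixed and stained in one step (final 0.05% Triton X-100, 1% formaldehyde, 1 ug/ml Hoechst) and imaged at 4×. Doses were one drug alone or a fixed anchor-drug dose plus five library-drug doses (not always all listed) in √10 steps, and values are duplicate-plate medians.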

Zosuquidar + Tozasertib = compound: O[C@@H](COc1cccc2ncccc12)CN1CCN([C@@H]2c3ccccc3[C@@H]3[C@H](c4ccccc42)C3(F)F)CC1 [Zosuquidar] + Cc1cc(Nc2cc(N3CCN(C)CC3)nc(Sc3ccc(NC(=O)C4CC4)cc3)n2)n[nH]1 [Tozasertib] (partner 0.1 µM)
Summary of the method: as §1

Kobe2602 + Phenformin = compound: C1=CC(=CC=C1NC(=S)NNC2=C(C=C(C=C2[N+](=O)[O-])C(F)(F)F)[N+](=O)[O-])F [Kobe2602] + N=C(N)NC(=N)NCCc1ccccc1 [Phenformin] (partner 250 µM)
Summary of the method: as §1

[2] = compound: COc1cc2nccc(Oc3ccc(NC(=O)C4(C(=O)Nc5ccc(F)cc5)CC4)cc3)c2cc1OC [Cabozantinib] + N=C(N)NC(=N)NCCc1ccccc1 [Phenformin] (partner 250 µM)
Summary of the method: as §1

Row | Cell Line | relative viability ([1]; first compound 0.02 µM) | relative viability ([1]; first compound 0.06325 µM) | relative viability ([1]; first compound 0.2 µM) | relative viability ([1]; first compound 0.6325 µM) | relative viability ([1]; first compound 2 µM) | relative viability (Zosuquidar + Tozasertib; first compound 0.01 µM) | relative viability (Zosuquidar + Tozasertib; first compound 0.03162 µM) | relative viability (Zosuquidar + Tozasertib; first compound 0.1 µM) | relative viability (Zosuquidar + Tozasertib; first compound 0.3162 µM) | relative viability (Zosuquidar + Tozasertib; first compound 1 µM) | relative viability (Kobe2602 + Phenformin; first compound 0.2 µM) | relative viability (Kobe2602 + Phenformin; first compound 0.6325 µM) | relative viability (Kobe2602 + Phenformin; first compound 2 µM) | relative viability (Kobe2602 + Phenformin; first compound 6.325 µM) | relative viability (Kobe2602 + Phenformin; first compound 20 µM) | relative viability ([2]; first compound 0.02 µM) | relative viability ([2]; first compound 0.06325 µM) | relative viability ([2]; first compound 0.2 µM) | relative viability ([2]; first compound 0.6325 µM) | relative viability ([2]; first compound 2 µM)
1 | NCI-H2009 | 1.11 | 1.09 | 1.15 | 1.09 | 1.04 | 0.538 | 0.518 | 0.574 | 0.46 | 0.436 | 0.454 | 0.503 | 0.504 | 0.421 | 0.305 | 0.532 | 0.549 | 0.547 | 0.518 | 0.459
2 | HCC-827 | 0.888 | 0.942 | – | 0.939 | 0.978 | 0.413 | 0.369 | 0.401 | 0.386 | 0.386 | 0.428 | 0.441 | 0.464 | 0.364 | 0.413 | 0.425 | 0.441 | – | 0.417 | 0.381
3 | NCI-H838 | 1.03 | 0.925 | 0.834 | 0.787 | 0.799 | 0.264 | 0.316 | 0.273 | 0.291 | 0.285 | 0.549 | 0.71 | 0.574 | 0.577 | 0.554 | 0.551 | 0.592 | 0.542 | 0.563 | 0.41
4 | CAL-12T | 0.724 | 0.753 | 0.634 | 0.611 | 0.429 | 0.263 | 0.289 | 0.329 | 0.333 | 0.286 | 0.586 | 0.597 | 0.579 | 0.538 | 0.449 | 0.666 | 0.597 | 0.554 | 0.591 | 0.529
5 | RERF-LC-KJ | 0.868 | 0.895 | 0.917 | 0.802 | 0.855 | 0.501 | 0.552 | 0.505 | 0.519 | 0.428 | 0.437 | 0.413 | 0.395 | 0.413 | 0.377 | 0.442 | 0.404 | 0.44 | 0.418 | 0.413
6 | NCI-H2347 | 0.761 | 0.771 | 0.46 | 0.786 | 0.584 | 0.593 | 0.575 | 0.555 | 0.691 | 0.543 | 0.529 | 0.48 | 0.375 | 0.469 | 0.407 | 0.449 | 0.604 | 0.596 | – | 0.318
7 | PC-14 | 0.983 | 0.911 | – | 0.894 | 0.788 | 0.551 | 0.602 | 0.629 | 0.519 | 0.57 | 0.59 | 0.804 | 0.558 | 0.699 | 0.592 | 0.531 | 0.93 | – | 0.591 | 0.552
8 | HCC-366 | 0.71 | 0.778 | 0.547 | 0.358 | 0.385 | 0.153 | 0.395 | 0.195 | 0.121 | 0.102 | 0.669 | 0.642 | 0.618 | 0.584 | 0.61 | 0.675 | 0.612 | 0.653 | 0.623 | 0.581
9 | LCLC-97TM1 | – | 0.354 | 0.49 | 0.365 | 0.306 | 0.202 | 0.266 | 0.167 | 0.208 | 0.212 | 0.44 | 0.428 | 0.434 | 0.39 | 0.42 | 0.229 | 0.461 | 0.5 | 0.431 | 0.45
10 | HCC-44 | 0.855 | 0.85 | 0.841 | 0.834 | 0.85 | 0.965 | 1.13 | 1.17 | 1.01 | 0.889 | 0.207 | 0.21 | 0.249 | 0.239 | 0.322 | 0.102 | 0.273 | 0.275 | 0.224 | 0.224
11 | A-427 | 0.836 | 0.968 | 0.887 | 0.789 | 0.858 | 0.205 | 0.247 | 0.271 | 0.218 | 0.192 | 0.416 | 0.413 | 0.364 | 0.303 | 0.307 | 0.374 | 0.321 | 0.427 | 0.359 | 0.232
12 | NCI-H23 | – | 0.634 | 0.503 | 0.473 | 0.413 | 0.393 | 0.629 | 0.537 | 0.34 | 0.362 | 0.75 | 0.782 | 0.762 | 0.723 | 0.814 | – | 0.938 | 0.8 | 0.825 | 0.814
13 | NCI-H520 | 1.03 | 0.843 | 0.758 | 0.644 | 0.596 | 0.413 | 0.441 | – | 0.392 | 0.416 | 0.539 | 0.582 | 0.632 | 0.654 | 0.539 | 0.608 | 0.598 | 0.65 | 0.672 | 0.432
14 | ABC-1 | 1.23 | 1.08 | 1.19 | 0.952 | 1.01 | 0.143 | 0.172 | 0.194 | 0.234 | 0.178 | 0.215 | 0.233 | – | 0.211 | 0.227 | 0.244 | 0.276 | 0.235 | 0.28 | 0.218
15 | NCI-H2085 | 0.949 | 0.921 | 0.992 | 0.898 | 0.799 | 0.852 | 0.886 | 0.778 | 0.835 | 0.856 | 0.682 | 0.687 | – | 0.684 | 0.708 | 0.749 | 0.752 | 0.595 | 0.695 | 0.616
16 | NCI-H661 | – | 0.991 | 1.13 | 0.918 | 1.03 | 0.354 | 0.313 | 0.353 | 0.328 | 0.33 | 0.273 | 0.277 | 0.261 | 0.298 | 0.298 | 0.273 | 0.252 | 0.283 | 0.335 | 0.286
17 | NCI-H1944 | – | 1.26 | 1.1 | 1.07 | 1.21 | 0.244 | 0.24 | 0.254 | 0.243 | 0.248 | 0.212 | 0.216 | 0.206 | 0.201 | 0.209 | 0.17 | 0.213 | 0.193 | 0.208 | 0.204
